Assay results published in patent US10898420B2, “Compositions containing phenolic compounds having synergistic antioxidant benefits” (L'OREAL, priority 2016, dated 2021).

Experiments:
[1] = Hydroxyl oxygen radical absorbance capacity (HORAC) assay, fluorescent probe with hydrogen peroxide and Cobalt(II) fluoride, Gallic acid standard; conditions: individual antioxidant compound
Experimental: (§1) Synergism was determined by comparing the antioxidant capacities of combinations of components measured by ORAC and HORAC, with expected or additive values of the individual compounds. The […], measure two different antioxidant properties, radical chain breaking and prevention of radical formation. The ORAC and HORAC assays are both fluorometric assays that use hydrogen atom transfer chemistry to detect oxidation of a fluorescent probe. In the ORAC assay, a free radical initiator is used to produce peroxyl radical probes, while in the HORAC assay, a hydroxyl radical initiator and fenton reagent are used to produce hydroxyl radical probes.
(§2) As reflected in the Examples below, the expected ORAC/HORAC is the combined (additive) antioxidant capacity of each individual antioxidant compound in the association, measured individually and assuming that each is functioning independently. The expected ORAC or HORAC value of a certain association can be calculated by using the following equation: ORAC or HORAC (total)=sum of ORAC or HORAC (compound n, individually) multiplied by the Percentage (compound n, of use in a cosmetic composition), n=1, 2, 3 . . . .
Similar to the ORAC assay, the HORAC assay is an in tubo assay designed to quantify the capacity of an antioxidant to avert the hydroxyl radical or anti-Fenton reaction. The hydroxyl radical, generated from hydrogen peroxide and Cobalt(II) fluoride (Fenton reaction), will quench a fluorescent probe by a hydrogen atom transfer reaction. Certain antioxidants can chelate the Co(II), preventing the generation of the hydroxyl radical and initially block or prevent the quenching of the probe. By quantifying the decay of fluorescence using a fluorometer, the degree of protection is determined comparing with a standard control antioxidant Gallic acid. The result is expressed in μMol equivalent of Gallic acid. Equipment that can automatically measure and calculate the capacity is commercially available, such as the VarioSkan flash microplate reader from Thermo Scientific. […]

[2] = Oxygen radical absorbance capacity (ORAC) assay, fluorescein probe with AAPH, Trolox standard; conditions: individual antioxidant compound
Experimental: as §1, §2
The ORAC assay is one of most commonly used methods to evaluate the capacity of antioxidants against ROS (reactive oxygen species), specific for peroxyl which is one of the most important free radicals present in the human skin environment. […] Azo-initiators are considered to produce the peroxyl radical by heating, which damages the fluorescent molecule, resulting in the loss of fluorescence. […] By quantifying the decay of fluorescence using a fluorometer, the degree of protection is determined comparing with a standard control antioxidant Trolox. […] Equipment that can automatically measure and calculate the capacity is commercially available, such as the VarioSkan flash microplate reader from Thermo Scientific.
References disclosing ORAC assays include: Cao G, Alessio H, Cutler R (1993). “Oxygen-radical absorbance capacity assay for antioxidants”. […]

| Compound | HORAC [1] | ORAC [2] [μmolTolox/g] |
| --- | --- | --- |
| O=C1O[C@H]([C@@H](O)CO)C(O)=C1O [Vitamin C, ascorbic acid] | No activity | 4456 |
| O=C(O)[C@H]1O[C@@H](Oc2cc3oc(-c4ccccc4)cc(=O)c3c(O)c2O)[C@H](O)[C@@H](O)[C@@H]1O [baicalin] | 2592 μmolGAE/g | 4759 |
| COc1cc(/C=C/C(=O)O)ccc1O [ferulic acid] | 9868 μmolGAE/g | 14272 |
